Series [1] relates to TRP2-specific CTL. As to the kind of experiment: CTL inducibility of TRP2 peptide vaccine with adjuvant (tetramer staining). It is filed as in vivo, C57BL/6JJcl mice. As to the method:
(§1) C57BL/6JJcl mice (6 to 8 weeks old) were purchased from CLEA Japan, Inc.
(§2) an adjuvant of the present invention or the well-known CpG ODN
The specific immunity was induced by vaccinating a mouse twice at 7 days intervals. Each vaccine was that 100 μg of TRP2 peptide, and 1.57 or 4.71 nmol of an adjuvant of the present invention or well-known CpG ODN, were dissolved in 1×PBS. 100 μL of the vaccine was administered subcutaneous injection on the flank of a mouse.
100 μL of the emulsion vaccine was administered subcutaneous injection on the flank of a mouse twice at 7 days intervals.
(§3) On 7 days after second vaccination, the blood was collected, red blood cells was removed by BD Pharm Lyse (BD pharmingen), and the white blood cells were suspended in FACS buffer (1% fetal bovine serum, 2 mM PBS with EDTA). Anti-mouse CD16/32 monoclonal antibody (BioXcell) was added thereto, and Fc receptor blocking was carried out at 4° C. for 30 minutes. […] Then, staining was carried out with DAPI (Invitrogen) and the cells were washed twice with FACS buffer. It was resuspended in FACS buffer and analyzed by FACS verse Flow Cytometer (BD bioscience) and FAC Suite software (BD bioscience). For analysis, after DAPI negative fraction was gated, white blood cells fraction were provided using forward and side-way scattering as indicators. In the white blood cells fraction, both positive cells of Alexa 647-CD8 and PE-H-2Kb Tetramer were defined as CTLs. CTL ratio in white blood cells was used for evaluation.
After calculation of the average CTL inducibility of each group per experiment, the ratio against average value of CTL inducibility of ssCpG ODN, ODN1826 (SEQ-1) or ODN2006 (SEQ-49) as a control was calculated.
In the case of an adjuvant comprising ODN1826 (Average of CTL inducibility of the adjuvant group)/(Average of CTL inducibility of the ODN1826 group)=the ratio against average value In the case of an adjuvant comprising ODN2006 (Average of CTL inducibility of the adjuvant group)/(Average of CTL inducibility of the ODN2006 group)=the ratio against average value
CTL inducibility of each adjuvant was shown when CTL inducibility of ssCpG ODN was taken as 1, so the bigger value means the higher CTL inducibility.

Series [2] deals with antigen-specific CTL (OVA peptide). Kind of series: CTL inducibility of OVA peptide vaccine with adjuvant (tetramer staining). It is filed as in vivo, C57BL/6JJcl mice. The note with it: Table 32, 1.57 nmol/head, ODN1826 (SEQ-1) group = 1. On the procedure: as §1, §2
The specific immunity was induced by vaccinating a mouse twice at 7 days intervals. […] 100 μL of the vaccine was administered subcutaneous injection on the flank of a mouse.
as §3, with “CTL ratio in white blood cells was used for evaluation.” left out
After calculation of the average CTL inducibility of each group per experiment, the ratio against average value of CTL inducibility of ssCpG ODN, ODN1826 (SEQ-1) or ODN2006 (SEQ-49) as a control was calculated. […]

In a further series the test system is B16F10 cells. Kind of series: Anti-tumor effect of TRP2 peptide vaccine using an adjuvant. It is filed as in vivo, mouse. On the procedure:
After immunization by TRP2 peptide vaccine, B16F10 cells (ATTC) which is mouse melanoma expressing TRP2 protein was subcutaneously transplanted to evaluate anti-tumor effect. […] The major and minor axes of the engrafted tumor were measured every 2 to 3 days, and the tumor volume was calculated by the formula: (major axis×minor axis^2)/2 Calculation method for indicators of anti-tumor effect For the adjuvant comprising ODN1826 100·(average tumor volume of adjuvant group)/(average tumor volume of ODN1826 group) For the adjuvant comprising ODN2006 100·(average tumor volume of adjuvant group)/(average tumor volume of ODN2006 group)

Another series deals with tumor growth. As to the kind of experiment: Anti-tumor effect (tumor inhibition rate) of OVA peptide vaccine with adjuvant. It is filed as in vivo, mouse. The note with it: Table 32, 1.57 nmol/head, compared to ODN1826 (SEQ-1). As to the method: After immunization by TRP2 peptide vaccine, B16F10 cells (ATTC) which is mouse melanoma expressing TRP2 protein was subcutaneously transplanted to evaluate anti-tumor effect. In a similar method to Example 3 A), on the next day that tetramer-positive ratio in peripheral blood of mouse vaccinated twice every 7 days was observed, B16F10 cells (1×10^5 cells/mouse) were subcutaneously transplanted in the right shoulder. The major and minor axes of the engrafted tumor were measured every 2 to 3 days, and the tumor volume was calculated by the formula: (major axis×minor axis^2)/2 Calculation method for indicators of anti-tumor effect For the adjuvant comprising ODN1826 100·(average tumor volume of adjuvant group)/(average tumor volume of ODN1826 group) For the adjuvant comprising ODN2006 100·(average tumor volume of adjuvant group)/(average tumor volume of ODN2006 group)
The compound with bigger value has the stronger anti-tumor activity.
The activity of an adjuvant of the present invention having a lipid comprising two acyl chains comprising 10 to 20 carbon atoms as a ligand was examined with OVA peptide.

For a further series, the system named is recombinant PCRV protein. As to the kind of experiment: Inducibility of antibody production in immunization by PCRV antigen vaccine (antibody titer). The note with it: A/J mice, recombinant PCRV protein with adjuvant, intradermal; antiserum Day 33; FIG. 15. It is filed as in vivo.
The next series concerns the target T1, human TLR9 (Homo sapiens, UniProt Q9NR96).
T1 construct: host or cells: HEK-Blue hTLR9 cells (HEK293)
T1 sequence (Q9NR96 26-1032): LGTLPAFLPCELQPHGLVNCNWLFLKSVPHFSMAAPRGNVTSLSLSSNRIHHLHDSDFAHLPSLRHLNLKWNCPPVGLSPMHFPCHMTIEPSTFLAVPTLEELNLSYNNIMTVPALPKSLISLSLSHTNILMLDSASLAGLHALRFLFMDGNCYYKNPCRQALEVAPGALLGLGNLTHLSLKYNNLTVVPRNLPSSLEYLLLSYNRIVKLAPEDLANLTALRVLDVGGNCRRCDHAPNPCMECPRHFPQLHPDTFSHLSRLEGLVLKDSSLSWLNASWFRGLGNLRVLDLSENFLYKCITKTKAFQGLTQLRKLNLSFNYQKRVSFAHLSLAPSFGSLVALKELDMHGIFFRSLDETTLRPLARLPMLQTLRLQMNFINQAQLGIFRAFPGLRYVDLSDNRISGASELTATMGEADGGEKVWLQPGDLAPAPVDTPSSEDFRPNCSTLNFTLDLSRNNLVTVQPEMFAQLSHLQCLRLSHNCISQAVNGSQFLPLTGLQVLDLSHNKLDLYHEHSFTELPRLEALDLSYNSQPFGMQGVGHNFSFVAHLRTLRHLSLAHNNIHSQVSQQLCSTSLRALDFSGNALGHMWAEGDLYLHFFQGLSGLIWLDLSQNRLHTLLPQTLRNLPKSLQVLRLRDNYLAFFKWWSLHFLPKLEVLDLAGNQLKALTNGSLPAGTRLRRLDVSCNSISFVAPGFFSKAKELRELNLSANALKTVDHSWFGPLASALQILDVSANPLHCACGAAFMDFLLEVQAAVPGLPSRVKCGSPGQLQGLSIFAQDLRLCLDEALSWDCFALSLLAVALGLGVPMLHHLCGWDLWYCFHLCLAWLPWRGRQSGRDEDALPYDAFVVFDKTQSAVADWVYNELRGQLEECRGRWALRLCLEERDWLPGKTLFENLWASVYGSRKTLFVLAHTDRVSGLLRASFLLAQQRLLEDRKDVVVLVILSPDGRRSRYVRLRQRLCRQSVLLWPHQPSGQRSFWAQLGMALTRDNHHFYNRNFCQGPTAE
Kind of series: Reporter assay with HEK-Blue hTLR9 cells (TLR9 agonist activity). It is filed as cell-based. The note with it: Table 30; CpG oligonucleotides except for ODN2006 and their double strands; read-out: EC50. On the procedure:
HEK-Blue™ hTLR9 cells (Invivogen) used for the reporter assay were made by introducing human TLR9 gene and a reporter gene that secretory alkaline phosphatase gene bound to NF-kB-AP-1 binding region sequence in HEK293 cells, and are the cells stably expressing the both genes. 3.6×10^4 of the cells suspended in HEK-Blue™ Detection ([…]) comprising substrates against the alkaline phosphatase were seeded on the 96 well plate, and 3 nM to 30 μM of a lipid binding double-stranded oligonucleotide of the present invention, the known CpG oligonucleotides (ODN2006, SEQ-49), or adjuvant based on design in Patent Document 1, i.e., ssCpG ODN introducing a lipid ligand (SEQ-142, 143 or 144) was added. After culturing in a 37° C., 5% CO2 incubator for 16 hours, absorbency at 620 nm was measured using the culture supernatant developed a color. The result value was analyzed with TIBCO Spotfire software, and calculated the 50% effective concentration (EC50) of each oligonucleotide.
In general terms: A reporter such as luciferase makes a cellular process visible.

Series [3] concerns TRP2-specific CTL. Kind of series: CTL inducibility of TRP2 peptide vaccine with adjuvant (tetramer staining). It is filed as in vivo, C57BL/6JJcl mice. The source holds these as a separate data set.
[4] abbreviates: Table 56, 4.71 nmol, SEQ-256 (D35-CpG) group = 1.
The mark [5] stands for this setting: Table 65, 4.71 nmol, respective ssCpG ODN (ODN2216, ODN684, D-LS01) group = 1.

In the oligonucleotide strings, read from the 5' end, every base follows the letter of its sugar. An asterisk marks phosphorothioate; unmarked linkages are phosphodiester. Other units and linkages are bracketed, terminal groups are in braces. A string of capitals states the bases alone. d = 2'-deoxy (DNA)

Experimental for recombinant PCRV protein: Perv nucleotide sequence (SEQ ID NO: 48) derived from Pseudomonas aeruginosa Strain PAO1 was cloned at NdeI-XhoI site in pET21a vector, and Escherichia coli strain BL21 (DE3) was transformed with the prepared plasmid. Strain perV-BL21 (DE3) was cultured in 500 mL of LB/Ampicillin liquid medium at 37° C., and 200 μL of 0.1 M IPTG was added when OD600 became 0.5 to induce expression of recombinant PCRV protein. After culturing at 16° C. for 18 hours, bacteria was separated by a centrifuge, and 15 ml of Buffer A (50 mM Tris-HCl (pH8.0), 0.2M NaCl) comprising 0.5% lysozyme (SIGMA Corporation) was added. After putting at 4° C. for 30 minutes, ultrasonic treatment was carried out. After centrifugation at 12,000 rpm for 10 minutes, soluble fraction was obtained. 1 mL of Ni-NTA agarose gel (QIAGEN) was added to Polyprep column (BIO-RAD Laboratories, Inc) and equilibrated with 10 mL of Buffer A. Soluble fraction was added to the column and passed. […] The resulting recombinant PCRV protein was measured the concentration with BCA assay kit (PIERCE) and kept at −80° C. […]
Antibody titer was measured as blow. […] 20 μL/well of 0.5 N sulfuric acid (Nacalai) was added, and absorbance at 450 nm was measured with a plate reader. The dilution ratio when absorbance at 450 nm is 1.0 was calculated and put as an antibody titer.

With ODN1826 [SEQ-1], the “Ratio of average value of antigen-specific CTL” value (“Ratio … of antigen-specific CTL” below) with TRP2-specific CTL [1] (Table 31, 1.57 nmol/head, ODN1826 (SEQ-1) group = 1) came out at 1.00; in the series on TRP2-specific CTL [1] (Table 33, 1.57 nmol/head, ODN1826 (SEQ-1) group = 1) it was 1.00; with TRP2-specific CTL [1] (Table 34, 1.57 nmol/head, ODN1826 (SEQ-1) group = 1), 1.00; with TRP2-specific CTL [1] (Table 35, 1.57 nmol/head, ODN1826 (SEQ-1) group = 1) it was 1.00; in the series on TRP2-specific CTL [1] (Table 36, 1.57 nmol/head (Montanide 100 μL), ODN1826 (SEQ-1) group = 1), 1.00; in the series with TRP2-specific CTL [1] (Table 37, 1.57 nmol/head, ODN1826 (SEQ-1) group = 1), 1.00. Also, the “Ratio … of antigen-specific CTL” value in series [2] came to 1.00. For the same substance, the “CTL inducibility (in words)” value in the series with TRP2-specific CTL [1] (adjuvants comprising ODN1826) is “TRP2-specific CTL was induced”. The “effect of inhibition on tumor progression of B16F10 cells (in words)” value in the series on B16F10 cells is reported as “little effect of inhibition on tumor progression of B16F10 cells”. In addition, the “Tumor inhibition rate (Day 14 after transplantation)” value in the series with B16F10 cells (Table 37, 1.57 nmol/head, compared to ODN1826 (SEQ-1)) worked out at 0.00%; in the series on tumor growth, 0.00%.
For “PCRV protein: recombinant PCRV protein C-end HIS derived from Pseudomonas aeruginosa Strain PAO1, antigen given without adjuvant as control”, the “antibody titer (dilution ratio when absorbance at 450 nm is 1.0)” value in the series with recombinant PCRV protein is 1.3×10^5.
Take “SEQ-253 (sense dA*dT*dC*dG*dA*dC*dT*dC*dT*dC*dG*dA*dG*dC*dG*dT*dT*dC*dT*dC)”: in the series with human TLR9, the EC50 turned out to be 2.87 µM.
Consider “SEQ-256 (sense dG*dGdTdGdCdAdTdCdGdAdTdGdCdAdGdGdGdG*dG*dG)”, for which the EC50 with human TLR9 stood at 3420 µM. In addition, the “Ratio … of antigen-specific CTL” value in the series on TRP2-specific CTL [3] (setting [4]) stood at 1.00.
In the case of “SEQ-258 (sense GGTGCATCGATGCAGGGGGG; antisense CCCCCCTGCATCGATG; phosphorothioate, 5' L4-18 lipid, chemistry not fully specified)”, the EC50 with human TLR9 was determined as 16.3 µM. In addition, in the series with TRP2-specific CTL [3] (setting [4]), the “Ratio … of antigen-specific CTL” value came to 2.46.
As to “SEQ-342 (dT*dC*dG*dA*dC*dG*dT*dT*dC*dG*dT*dC*dG*dT*dT*dC*dG*dT*dC*dG*dT*dT*dC)”, the EC50 with human TLR9 turned out to be 2.34 µM. Moreover, the “Ratio … of antigen-specific CTL” value with TRP2-specific CTL [3] (setting [5]) was 1.00.
In the same order, the values of “SEQ-345 (dT*dC*dG*dC*dG*dA*dC*dG*dT*dT*dC*dG*dC*dC*dC*dG*dA*dC*dG*dT*dT*dC*dG*dG*dT*dA)” are 6.28 µM and 1.00.
For “SEQ-351 (dT*dC*dG*dT*dC*dG*dT*dT*dT*dT*dC*dG*dG*dC*dG*dC*dG*dC*dG*dC*dC*dG)”, the EC50 in the series with human TLR9 was determined as 11.6 µM.
As to “SEQ-354 (dT*dC*dG*dT*dC*dG*dT*dC*dG*dT*dT*dC*dG*dA*dA*dC*dG*dA*dC*dG*dT*dT*dG*dA*dT)”, the EC50 in the series with human TLR9 came to 16900 µM. The “Ratio … of antigen-specific CTL” value in the series on TRP2-specific CTL [1] (Table 66, 4.71 nmol, SEQ-354 (ODN M362) group = 1) is on record as 1.00.

A word on the EC50: it is the concentration at which the effect is half-maximal.

These data come from patent US10940201B2, “Nucleic acid derivative having immunostimulatory activity” (Shionogi & Co., Ltd., priority 2015, dated 2021).
